Experimental data taken from patent US9682931B2, “Aryloyl(oxy or amino)pentafluorosulfanylbenzene compound, pharmaceutically acceptable salt thereof, and prodrugs thereof” (UBE INDUSTRIES, LTD., priority 2013, dated 2017).
Values after ≈ are worked out from the molar mass of the structure shown. Counter-ions that a name gives are not always drawn. Like-named read-outs stand apart in the source and are kept apart here.

Tested on: K562 human leukemia-derived cell lines
Assay: K562 human leukemia cell-proliferation inhibition test
Assay type: cell-based
Description: K562 Human Leukemia Cell-Proliferation Inhibition Test
A cell proliferation inhibition test using K562 cells was performed. The activity in the presence of a test substance was compared to the activity in the presence of green tea polyphenol (GTP). The materials used in the test are as follows.
Cells: K562 human leukemia-derived cell lines (DS Pharma Biomedical Co., Ltd.)
Control Substance: Green Tea Polyphenols, abbreviation: GTP (LKT Laboratories, Inc.)
Culture solution: 10% equine serum-supplemented RPMI1640 medium
A test substance and a control substance were used by dissolving each of them in DMSO. To a solution (0.99 mL) containing K562 cells in a cell concentration of 20,000 cells/mL, a test substance solution or a control substance solution (0.01 mL) was added and the cells were cultured. Seventy two hours later, a part of the cells was stained with trypan blue and viable cells were counted by a counting chamber.
In Table 2, “IC50” denotes the sample concentration inhibiting 50% of cell proliferation

[1] = K562 cells, 72 hours, viable cells counted with trypan blue
[2] = Homo sapiens, K562, 72 h, K562 cells, 72 hours, viable cells counted with trypan blue, read-out: IC50

Compound	IC50 [2] [µg/mL]	other results
4-(3,5-dihydroxybenzoylamino)pentafluorosulfanylbenzene [Compound 50]	–	IC50 [1]: 3.5 µg/mL
O=C(Nc1ccc(S(F)(F)(F)(F)F)cc1)c1ccccc1 [Compound 1, 4-benzoylaminopentafluorosulfanylbenzene]	–	IC50 (Homo sapiens, K562, 72 h): 1.5 µg/mL (≈ 4.64 µM)
O=C(Oc1cccc(S(F)(F)(F)(F)F)c1)c1cc(O)c(O)c(O)c1 [Compound 8, 3-(3,4,5-trihydroxybenzoyloxy)pentafluorosulfanylbenzene]	8.5 (≈ 22.8 µM)	–
O=C(/C=C/c1ccc2c(c1)OCO2)Nc1ccc(S(F)(F)(F)(F)F)cc1 [Compound 19, 4-(3,4-methylenedioxycinnamoylamino)pentafluorosulfanylbenzene]	–	IC50 (Homo sapiens, K562, 72 h): 0.66 µg/mL (≈ 1.68 µM)
COc1cc(/C=C/C(=O)Nc2ccc(S(F)(F)(F)(F)F)cc2)ccc1O [Compound 21, 4-(4-hydroxy-3-methoxycinnamoylamino)pentafluorosulfanylbenzene]	0.93 (≈ 2.35 µM)	–
O=C(Nc1ccc(S(F)(F)(F)(F)F)cc1)c1c(O)cc(O)cc1O [Compound 23, 4-(2,4,6-trihydroxybenzoylamino)pentafluorosulfanylbenzene]	4.1 (≈ 11 µM)	–
O=C(/C=C/c1cc(O)c(O)c(O)c1)Nc1ccc(S(F)(F)(F)(F)F)cc1 [Compound 24, 4-(3,4,5-trihydroxycinnamoylamino)pentafluorosulfanylbenzene]	14 (≈ 35.2 µM)	–
CC(=O)Oc1cc(/C=C/C(=O)Nc2ccc(S(F)(F)(F)(F)F)cc2)cc(OC(C)=O)c1OC(C)=O [Compound 25, 4-(3,4,5-triacetoxycinnamoylamino)pentafluorosulfanylbenzene]	6.3 (≈ 12 µM)	–
C=CCOc1ccc(C(=O)Nc2ccc(S(F)(F)(F)(F)F)cc2)cc1OC [Compound 28, 4-(4-(2-propenyloxy)-3-methoxybenzoylamino)pentafluorosulfanylbenzene]	0.8 (≈ 1.95 µM)	–
C=CCc1cc(C(=O)Nc2ccc(S(F)(F)(F)(F)F)cc2)cc(OC)c1O [Compound 30, 4-(4-hydroxy-5-(2-propenyl)-3-methoxybenzoylamino)pentafluorosulfanylbenzene]	0.9 (≈ 2.2 µM)	–
C=CC(=O)Nc1ccc(S(F)(F)(F)(F)F)cc1 [Compound 31, 4-acryloylaminopentafluorosulfanylbenzene]	–	IC50 (Homo sapiens, K562, 72 h): 0.88 µg/mL (≈ 3.22 µM)
C=CC(=O)Nc1cccc(S(F)(F)(F)(F)F)c1 [Compound 32, 3-acryloylaminopentafluorosulfanylbenzene]	–	IC50 (Homo sapiens, K562, 72 h): 4.6 µg/mL (≈ 16.8 µM)
O=C(Nc1ccc(S(F)(F)(F)(F)F)cc1)c1ccc(CO)o1 [Compound 33, 4-(5-hydroxymethylfuran-2-yl)carbonylaminopentafluorosulfanylbenzene]	2.7 (≈ 7.87 µM)	–
COc1cc(/C=C/C(=O)Nc2ccc(S(F)(F)(F)(F)F)cc2)ccc1OCC=C(C)C [Compound 37, 4-(4-(3-methyl-2-butenyloxy)-3-methoxycinnamoylamino)pentafluorosulfanylbenzene]	4.8 (≈ 10.4 µM)	–
C=CCOc1ccc(/C=C/C(=O)Nc2ccc(S(F)(F)(F)(F)F)cc2)cc1OC [Compound 38, 4-(4-(2-propenyloxy)-3-methoxycinnamoylamino)pentafluorosulfanylbenzene]	0.6 (≈ 1.38 µM)	–
COc1ccc(/C=C/C(=O)Nc2ccc(S(F)(F)(F)(F)F)cc2)cc1OCC=C(C)C [Compound 41, 4-(3-(3-methyl-2-butenyloxy)-4-methoxycinnamoylamino)pentafluorosulfanylbenzene]	0.81 (≈ 1.75 µM)	–
C/C=C/COc1ccc(/C=C/C(=O)Nc2ccc(S(F)(F)(F)(F)F)cc2)cc1OC [Compound 42, 4-(4-(2-butenyloxy)-3-methoxycinnamoylamino)pentafluorosulfanylbenzene]	1.7 (≈ 3.78 µM)	–
COc1cc(/C=C/C(=O)Nc2ccc(S(F)(F)(F)(F)F)cc2)cc(OC)c1OCC=C(C)C [Compound 43, 4-(4-(3-methyl-2-butenyloxy)-3,5-dimethoxycinnamoylamino)pentafluorosulfanylbenzene]	2.8 (≈ 5.67 µM)	–
C=CC(C)Oc1ccc(/C=C/C(=O)Nc2ccc(S(F)(F)(F)(F)F)cc2)cc1OC (stereo not drawn) [Compound 44, 4-(4-(1-methyl-2-propenyloxy)-3-methoxycinnamoylamino)pentafluorosulfanylbenzene]	1 (≈ 2.22 µM)	–
COc1cc(C(=O)Nc2ccc(S(F)(F)(F)(F)F)cc2)ccc1O [Compound 45, 4-(4-hydroxy-3-methoxybenzoylamino)pentafluorosulfanylbenzene]	0.51 (≈ 1.38 µM)	–
C=CCc1cc(/C=C/C(=O)Nc2ccc(S(F)(F)(F)(F)F)cc2)cc(OC)c1O [Compound 46, 4-(4-hydroxy-5-(2-propenyl)-3-methoxycinnamoylamino)pentafluorosulfanylbenzene]	2.5 (≈ 5.74 µM)	–
C/C=C/Cc1cc(/C=C/C(=O)Nc2ccc(S(F)(F)(F)(F)F)cc2)cc(OC)c1O [Compound 47, 4-(4-hydroxy-5-(2-butenyl)-3-methoxycinnamoylamino)pentafluorosulfanylbenzene]	3.5 (≈ 7.79 µM)	–
C=CC(C)(C)Oc1cccc(C(=O)Nc2ccc(S(F)(F)(F)(F)F)cc2)c1 [Compound 48, 4-(3-(1,1-dimethyl-2-propenyloxy)benzoylamino)pentafluorosulfanylbenzene]	1.9 (≈ 4.66 µM)	–

Compound	IC50 [2] [µg/mL]	other results
O=C(/C=C/c1ccc(O)cc1O)Nc1ccc(S(F)(F)(F)(F)F)cc1 [Compound 51, 4-(2,4-dihydroxycinnamoylamino)pentafluorosulfanylbenzene]	1.2 (≈ 3.15 µM)	–
COc1ccc(/C=C/C(=O)Nc2ccc(S(F)(F)(F)(F)F)cc2)cc1O [Compound 52, 4-(3-hydroxy-4-methoxycinnamoylamino)pentafluorosulfanylbenzene]	0.28 (≈ 0.708 µM)	–
COc1cc(/C=C/C(=O)Nc2ccc(S(F)(F)(F)(F)F)cc2)cc(OC)c1O [Compound 53, 4-(4-hydroxy-3,5-dimethoxycinnamoylamino)pentafluorosulfanylbenzene]	0.9 (≈ 2.12 µM)	–
O=C(/C=C/c1ccc(O)c(O)c1)Nc1ccc(S(F)(F)(F)(F)F)cc1 [Compound 56, 4-(3,4-dihydroxycinnamoylamino)pentafluorosulfanylbenzene]	–	IC50 [1]: 0.83 µg/mL (≈ 2.18 µM)
O=C(Nc1ccc(S(F)(F)(F)(F)F)cc1)c1ccc(O)c(F)c1 [Compound 57, 4-(4-hydroxy-3-fluorobenzoylamino)pentafluorosulfanylbenzene]	3.3 (≈ 9.24 µM)	–
O=C(Nc1ccc(S(F)(F)(F)(F)F)cc1)c1ccc(F)c(O)c1 [Compound 58, 4-(3-hydroxy-4-fluorobenzoylamino)pentafluorosulfanylbenzene]	5.3 (≈ 14.8 µM)	–
COc1cc(C(=O)Nc2ccc(S(F)(F)(F)(F)F)cc2)ccc1[N+](=O)[O-] [Compound 59, 4-(4-nitro-3-methoxybenzoylamino)pentafluorosulfanylbenzene]	1.1 (≈ 2.76 µM)	–
COc1cc(C(=O)Nc2ccc(S(F)(F)(F)(F)F)cc2)ccc1N [Compound 60, 4-(4-amino-3-methoxybenzoylamino)pentafluorosulfanylbenzene]	0.1 (≈ 0.271 µM)	–
Nc1ccc(C(=O)Nc2ccc(S(F)(F)(F)(F)F)cc2)cc1 [Compound 61, 4-(4-aminobenzoylamino)pentafluorosulfanylbenzene]	0.086 (≈ 0.254 µM)	–
O=C(Nc1ccc(S(F)(F)(F)(F)F)cc1)c1ccc([N+](=O)[O-])cc1 [Compound 62, 4-(4-nitrobenzoylamino)pentafluorosulfanylbenzene]	0.78 (≈ 2.12 µM)	–
Nc1ccc(C(=O)Nc2ccc(S(F)(F)(F)(F)F)cc2)cc1 [Compound 63, 4-(4-aminobenzoylamino)pentafluorosulfanylbenzene hydrochloride salt]	–	IC50 (Homo sapiens, K562, 72 h): 0.85 µg/mL
C=CCOc1cccc(C(=O)Nc2ccc(S(F)(F)(F)(F)F)cc2)c1 [Compound 64, 4-(3-allyloxybenzoylamino)pentafluorosulfanylbenzene]	1.1 (≈ 2.9 µM)	–
O=C(Nc1ccc(S(F)(F)(F)(F)F)cc1)c1cccc(O)c1 [Compound 65, 4-(3-hydroxybenzoylamino)pentafluorosulfanylbenzene]	0.92 (≈ 2.71 µM)	–
O=C(Nc1ccc(S(F)(F)(F)(F)F)cc1)c1cccc(O)n1 [Compound 66, 4-(2-hydroxypyridin-6-yl)carbonylaminopentafluorosulfanylbenzene]	2.3 (≈ 6.76 µM)	–
O=C(Nc1ccc(S(F)(F)(F)(F)F)cc1)c1ncccc1O [Compound 68, 4-(3-hydroxypyridin-2-yl)carbonylaminopentafluorosulfanylbenzene]	4.2 (≈ 12.3 µM)	–
O=C(Nc1ccc(S(F)(F)(F)(F)F)cc1)c1cc(O)ncn1 [Compound 69, 4-(4-hydroxypyrimidin-6-yl)carbonylaminopentafluorosulfanylbenzene]	2 (≈ 5.86 µM)	–
O=C(Nc1ccc(S(F)(F)(F)(F)F)cc1)c1ncccn1 [Compound 70, 4-(pyrimidin-2-yl)carbonylaminopentafluorosulfanylbenzene]	1.5 (≈ 4.61 µM)	–
O=C(Nc1ccc(S(F)(F)(F)(F)F)cc1)c1ccccn1 [Compound 71, 4-(pyridin-2-yl)carbonylaminopentafluorosulfanylbenzene]	4.4 (≈ 13.6 µM)	–
O=C(Nc1ccc(S(F)(F)(F)(F)F)cc1)c1ccncc1 [Compound 72, 4-(pyridin-4-yl)carbonylaminopentafluorosulfanylbenzene]	0.1 (≈ 0.308 µM)	–
O=C(Nc1ccc(S(F)(F)(F)(F)F)cc1)c1ccncn1 [Compound 73, 4-(pyrimidin-4-yl)carbonylaminopentafluorosulfanylbenzene]	2.3 (≈ 7.07 µM)	–
O=C(Nc1ccc(S(F)(F)(F)(F)F)cc1)c1cc2cc(O)c(O)cc2oc1=O [Compound 74, 4-(6,7-dihydroxycoumarin-3-yl)carbonylaminopentafluorosulfanylbenzene]	5 (≈ 11.8 µM)	–
O=C(Nc1ccc(S(F)(F)(F)(F)F)cc1)c1ccncc1F [Compound 75, 4-(3-fluoropyridin-4-yl)carbonylaminopentafluorosulfanylbenzene]	2 (≈ 5.84 µM)	–
